{"source": "patent US20170368082A1", "about": "“FORMULATIONS OF BRINCIDOFOVIR” (priority 2016, published 2017)", "assay_type_in_all_cases": "physicochemical", "key": {"[1]": {"assay": "pH stability of brincidofovir stock solutions (50 μg/mL, 50 mM phosphate pH 6.0-8.0, 20% methanol)", "protocol": "Brincidofovir sample stock solutions (50 μg/mL) were prepared in 50 mM phosphate buffer at pH 6.0-8.0 containing 20% methanol. The samples were aliquoted and stored at two temperatures (T=2-8° C. and T=40° C.), and monitored for pH and recovery of brincidofovir at multiple time points over the course of two weeks. Under both conditions, the samples maintained the pH level throughout the time course of the experiment.\nThe decrease may be related to the observed precipitation. Variation for pH 7.0 is observed for t>8 days. One impurity (RT=4.7 min) was detected that exceeded the set total peak area threshold that was applied for peak integration. The percent of the total peak area was below 0.4% for samples at pH 6 and 6.5, and below 0.1% for samples at higher pH.\nFor the samples at lower pH, a peak associated with the deamination product of brincidofovir, was observed, encompassing an area % of 1.91 at pH 6.0, and 0.58 at pH 6.5. The degradants peak is not observed at neutral pH and above."}, "[2]": {"assay": "Sterilization filter compatibility", "protocol": "Formulations of the disclosure were evaluated for sterilization filter compatibility. Aliquots of a testing brincidofovir formulation were filtered through the corresponding syringe filters as follows:\nA: Filter: 0.2 μm, 25 mm, syringe filter, Supor® membrane (PES), sterile; testing solution: 10 mg/mL brincidofovir, 200 mM sodium phosphate, pH=8.0; testing volume: 10 mL. B: Filter: 0.2 μm, 25 mm, syringe filter, Posidyne® membrane, sterile; testing solution: 10 mg/mL brincidofovir, 200 mM sodium phosphate, pH=8.0; testing volume: 10 mL. C: Filter: 0.22 μm, 33 mm, syringe filter, Durapore® PVDF membrane, γ-irradiated; testing solution: […] brincidofovir, 4 mM sodium phosphate, pH-8, approx. 5% dextrose (50× dilution of 10 mg/mL brincidofovir, 200 mM sodium phosphate, pH=8.0 with 5% dextrose solution; testing volume: 50 mL.\nThe first and last 10% of the filtrate were collected. Samples of the collected filtrates, along with samples of the pre filtration formulation, were assessed for their appearance, pH, and c(BCV)."}, "[3]": {"assay": "Infusion vehicle (5% dextrose) compatibility", "settings": "ambient", "protocol": "A brincidofovir formulation comprising 10 mg/mL brincidofovir, 200 mM sodium phosphate, and 69 mM dextrose (pH=8.0) was diluted with the testing infusion vehicle (5% dextrose solution) to yield c(BCV)=0.5 and 1.0 mg/mL solutions. The diluted solutions were stored at ambient conditions, and samples were collected at initially at the beginning of the experiment, and after 2 h, 8 h, and 24 h and evaluated for appearance, pH, and recovery of c(BCV) (via HPLC). […] Detailed results of the study are summarized below (Table 18).\nThe Formulation 3a was diluted with the infusion vehicle (5% dextrose) solution to yield c(BCV)=0.5 mg/mL and 1.0 mg/mL solutions. The appearance, pH, and brincidofovir recovery (determined via HPLC) were evaluated at the time of preparing the test solution (to), and after 2 h (t2h), 8 h (t8h), and 24 h (t24h)"}, "[4]": {"assay": "Stability study I: physical degradation and benchmark stability study", "protocol": "Testing of the chemical degradation was performed in an accelerated stability study setup applying heat as an accelerator/stressor. An Arrhenius analysis was carried out providing an API half-life and a degradation rate at lower temperatures. Physical stability was evaluated at the desired storage temperature (2-8° C.); a benchmark/reference condition was likewise included in the study. The setup of the study is specified below:\nPhysical degradation and benchmark stability study: 2-8° C., 25° C.\nPhysical degradation and benchmark stability study: initial, 14 and 28 days,\nappearance, pH, c(BCV) recovery (HPLC), purity (HPLC), and liquid particle counting (physical degradation and benchmark stability study),\nThe results of the physical/benchmark stability for both tested formulations are summarized in Table 11 and Table 12, respectively. The purities of the formulations at different temperatures were determined by comparing chromatograms obtained at different temperatures and time points during the study."}, "[5]": {"settings": "PES filter membrane, first 10% filtrate volume"}, "[6]": {"settings": "PES filter membrane, last 10% filtrate volume"}, "[7]": {"settings": "PES filter membrane, pre filtration"}, "[8]": {"settings": "PVDF filter membrane, first 10% filtrate volume"}, "[9]": {"settings": "PVDF filter membrane, last 10% filtrate volume"}, "[10]": {"settings": "PVDF filter membrane, pre filtration"}, "[11]": {"settings": "Posidyne filter membrane, first 10% filtrate volume"}, "[12]": {"settings": "Posidyne filter membrane, last 10% filtrate volume"}, "[13]": {"settings": "Posidyne filter membrane, pre filtration"}, "[14]": {"settings": "c(BCV) 0.5 mg/mL in 5% dextrose, 0 h"}, "[15]": {"settings": "c(BCV) 0.5 mg/mL in 5% dextrose, 2 h"}, "[16]": {"settings": "c(BCV) 0.5 mg/mL in 5% dextrose, 8 h"}, "[17]": {"settings": "c(BCV) 0.5 mg/mL in 5% dextrose, 24 h"}, "[18]": {"settings": "c(BCV) 1.0 mg/mL in 5% dextrose, 0 h"}, "[19]": {"settings": "c(BCV) 1.0 mg/mL in 5% dextrose, 2 h"}, "[20]": {"settings": "c(BCV) 1.0 mg/mL in 5% dextrose, 8 h"}, "[21]": {"settings": "c(BCV) 1.0 mg/mL in 5% dextrose, 24 h"}}, "data": [{"smiles": "CCCCCCCCCCCCCCCCOCCCOP(=O)(O)CO[C@H](CO)Cn1ccc(N)nc1=O", "note": "[Brincidofovir]", "values": [{"measurement": "Impurity (RT=4.7 min), percent of total peak area", "setting": "[1]; 2-8 °C, higher pH", "result": "below 0.1%"}, {"measurement": "Time at which precipitation was observed", "setting": "[1]; 2-8 °C, pH 6.0", "result": 2, "unit": "days"}, {"measurement": "Impurity (RT=4.7 min), percent of total peak area", "setting": "[1]; 2-8 °C, pH 6 and 6.5", "result": "below 0.4%"}, {"measurement": "Time at which precipitation was observed", "setting": "[1]; 2-8 °C, pH 6.5", "result": 2, "unit": "days"}, {"measurement": "Time at which precipitation was observed", "setting": "[1]; 2-8 °C, pH 7.0", "result": 4, "unit": "days"}, {"measurement": "Appearance", "setting": "[1]; 2-8 °C, pH 7.5 and pH 8.0, two weeks", "result": "no observable change in appearance"}, {"measurement": "Appearance", "setting": "[1]; 40 °C, any pH", "result": "no physical change in appearance"}, {"measurement": "Deamination product peak area %", "setting": "[1]; 40 °C, pH 6.0", "result": 1.91, "unit": "%"}, {"measurement": "Deamination product peak area %", "setting": "[1]; 40 °C, pH 6.5", "result": 0.58, "unit": "%"}, {"measurement": "Appearance", "setting": "[2]; [5]", "result": "Clear,"}, {"measurement": "Measured pH", "setting": "[2]; [5]", "result": 8.0}, {"measurement": "Observed c(BCV)", "setting": "[2]; [5]", "result": 9.8, "unit": "mg/mL"}, {"measurement": "Appearance", "setting": "[2]; [6]", "result": "Clear,"}, {"measurement": "Measured pH", "setting": "[2]; [6]", "result": 8.0}, {"measurement": "Observed c(BCV)", "setting": "[2]; [6]", "result": 9.8, "unit": "mg/mL"}, {"measurement": "Appearance", "setting": "[2]; [7]", "result": "Clear,"}, {"measurement": "Measured pH", "setting": "[2]; [7]", "result": 8.1}, {"measurement": "Observed c(BCV)", "setting": "[2]; [7]", "result": 9.9, "unit": "mg/mL"}, {"measurement": "Appearance", "setting": "[2]; [8]", "result": "Clear,"}, {"measurement": "Measured pH", "setting": "[2]; [8]", "result": 8.1}, {"measurement": "Observed c(BCV)", "setting": "[2]; [8]", "result": 0.20, "unit": "mg/mL"}, {"measurement": "Appearance", "setting": "[2]; [9]", "result": "Clear,"}, {"measurement": "Measured pH", "setting": "[2]; [9]", "result": 8.1}, {"measurement": "Observed c(BCV)", "setting": "[2]; [9]", "result": 0.20, "unit": "mg/mL"}, {"measurement": "Appearance", "setting": "[2]; [10]", "result": "Clear,"}, {"measurement": "Measured pH", "setting": "[2]; [10]", "result": 8.0}, {"measurement": "Observed c(BCV)", "setting": "[2]; [10]", "result": 0.20, "unit": "mg/mL"}, {"measurement": "Appearance", "setting": "[2]; [11]", "result": "Clear,"}, {"measurement": "Measured pH", "setting": "[2]; [11]", "result": 8.0}, {"measurement": "Observed c(BCV)", "setting": "[2]; [11]", "result": 9.7, "unit": "mg/mL"}, {"measurement": "Appearance", "setting": "[2]; [12]", "result": "Clear,"}, {"measurement": "Measured pH", "setting": "[2]; [12]", "result": 8.0}, {"measurement": "Observed c(BCV)", "setting": "[2]; [12]", "result": 9.8, "unit": "mg/mL"}, {"measurement": "Appearance", "setting": "[2]; [13]", "result": "Clear,"}, {"measurement": "Measured pH", "setting": "[2]; [13]", "result": 8.1}, {"measurement": "Observed c(BCV)", "setting": "[2]; [13]", "result": 9.9, "unit": "mg/mL"}, {"measurement": "Appearance", "setting": "[3]; [14]", "result": "Clear, colorless"}, {"measurement": "Measured pH", "setting": "[3]; [14]", "result": 8.2}, {"measurement": "Observed c(BCV)", "setting": "[3]; [14]", "result": 0.51, "unit": "mg/mL"}, {"measurement": "Appearance", "setting": "[3]; [15]", "result": "Clear, colorless"}, {"measurement": "Measured pH", "setting": "[3]; [15]", "result": 8.3}, {"measurement": "Observed c(BCV)", "setting": "[3]; [15]", "result": 0.51, "unit": "mg/mL"}, {"measurement": "Appearance", "setting": "[3]; [16]", "result": "Clear, colorless"}, {"measurement": "Measured pH", "setting": "[3]; [16]", "result": 8.2}, {"measurement": "Observed c(BCV)", "setting": "[3]; [16]", "result": 0.51, "unit": "mg/mL"}, {"measurement": "Appearance", "setting": "[3]; [17]", "result": "Clear, colorless"}, {"measurement": "Measured pH", "setting": "[3]; [17]", "result": 8.2}, {"measurement": "Observed c(BCV)", "setting": "[3]; [17]", "result": 0.49, "unit": "mg/mL"}, {"measurement": "Appearance", "setting": "[3]; [18]", "result": "Clear, colorless"}, {"measurement": "Measured pH", "setting": "[3]; [18]", "result": 8.2}, {"measurement": "Observed c(BCV)", "setting": "[3]; [18]", "result": 1.0, "unit": "mg/mL"}, {"measurement": "Appearance", "setting": "[3]; [19]", "result": "Clear, colorless"}, {"measurement": "Measured pH", "setting": "[3]; [19]", "result": 8.2}, {"measurement": "Observed c(BCV)", "setting": "[3]; [19]", "result": 1.0, "unit": "mg/mL"}, {"measurement": "Appearance", "setting": "[3]; [20]", "result": "Clear, colorless"}, {"measurement": "Measured pH", "setting": "[3]; [20]", "result": 8.2}, {"measurement": "Observed c(BCV)", "setting": "[3]; [20]", "result": 1.0, "unit": "mg/mL"}, {"measurement": "Appearance", "setting": "[3]; [21]", "result": "Clear, colorless"}, {"measurement": "Measured pH", "setting": "[3]; [21]", "result": 8.2}, {"measurement": "Observed c(BCV)", "setting": "[3]; [21]", "result": 1.0, "unit": "mg/mL"}, {"measurement": "Degradation over one month", "setting": "[4]; 2-8 °C", "result": 6, "unit": "%"}, {"measurement": "Degradation over one month", "setting": "[4]; 25 °C", "result": 8, "unit": "%"}, {"measurement": "Purity of brincidofovir", "setting": "[4]; over one month", "result": 99, "unit": "%"}]}]}
